Tests used:
[1] = system: mitochondrial polymerase γ; settings: cited from earlier work
[2] = system: heart mitochondria; assay: Conversion of [3H]-dGMP to [3H]-dGTP in isolated heart mitochondria; format: biochemical, rat; settings: 1 μM precursor
Description: Thus, we were interested in determining if the dGTP and dATP phosphorylation pathway in isolated mitochondria functioned similarly.
[^3H]-dGMP (1 μM) or [^3H]-dAMP (1 μM) was incubated in heart mitochondria as described for Figure 1 for the times shown, and their conversion to [^3H]-dGTP and [^3H]-dATP, respectively, determined in the presence and absence of Ap5A ([…]), a competitive inhibitor of adenylate kinase. Data are shown as a box plot of two independent experiments. The thickness of the lines indicates the spread of the duplicates. Ap5A, P1,P5-di(adenosine-5) pentaphosphate pentasodium salt.
(§1) To measure and compare phosphorylation and kinetics, a stable substrate concentration was necessary and EHNA (5 μM) ([50]) and I-H (2.0 μM) ([49]) were added to all mitochondrial incubations. […] The mitochondria were incubated in vitro for up to 2 h at 37 °C in a shaker bath. At the end of the incubation, reactions were terminated by addition of 10% TCA to an equal volume of incubation mixture (175 μl) and spun in a microcentrifuge to remove precipitates. The supernatant was neutralized with AG 11 A8 resin and filtered through a […] nylon syringe filter. The neutralized and filtered supernatants were analyzed by ultra high pressure liquid chromatography (UPLC). Radioactivity was determined from aliquots of each sample and processed through a Beckman Coulter multipurpose liquid scintillation counter (model 6500).

[3] = system: isolated rat heart; assay: Phosphorylation of [3H]-ETV, [3H]-dG and [3H]-dA in the isolated perfused rat heart (Langendorff); settings: 60-min perfusion
Description: The phosphorylation of [^3H]-dG, [^3H]-dA, and [^3H]-ETV in isolated mitochondria depends on the activity of the mitochondrial dGK. To determine the degree of phosphorylation in a whole tissue, which would include the activity of the cytosolic dCK, we utilized an isolated rat heart Langendorff retrograde perfusion model. The breakdown and phosphorylation of [^3H]-ETV, [^3H]-dG, and [^3H]-dA (0.5 μM each) was measured in the perfusates and in the hearts after 60 min of perfusion (Fig. 9, A and B). […] However, the heart was still able to take up and maintain a small amount of dG to generate 0.18 ± 0.05 pmol/mg wet heart of phosphorylated dG during the 60-min perfusion. […] Despite the loss of [^3H]-dA from the perfusate, the heart took up and maintained enough dA to produce 0.48 ± 0.08 pmol/mg wet heart of phosphorylated [^3H]-dA products at 60 min (Fig. 9B). […] Note that [^3H]-dG and [^3H]-dG catabolites equilibrate rapidly between the perfusion buffer and the heart, while the phosphorylated forms of [^3H]-dG are retained solely in the heart tissue.
Figure 9 [^3H]-ETV and [^3H]-dG phosphorylation in a perfused rat heart. Rat hearts were removed and perfused using the Langendorff method for 1 h as described in Experimental procedures with 0.5 μM [^3H]-ETV, 0.5 μM [^3H]-dG), or 0.5 μM [^3H]-dA. […] A, the amount of exogenous [^3H]-parent compound in the perfusate as a function of time, plotted as a box plot of three independent experiments. See text for details. B, the amount of phosphorylated [^3H]-ETV, [^3H]-dG, or [^3H]-dA in the heart tissue after 60 min of perfusion with additions as noted in (A). See text for details.
Rat hearts were perfused by Langendorff retrograde perfusion apparatus with [^3H]-dG, [^3H]-dA, or [^3H]-ETV for 60 min under the conditions previously described ([25], [26], [51]). Perfused hearts were snap frozen into wafers by clamping the heart in liquid nitrogen, and the frozen tissue wafers were stored in −80 °C until processed as previously described for ([24]) UPLC analysis.

[4] = target: T1, purine nucleoside phosphorylase (PNP) (Rattus norvegicus, UniProt P85973)
T1 sequence (P85973 1-289): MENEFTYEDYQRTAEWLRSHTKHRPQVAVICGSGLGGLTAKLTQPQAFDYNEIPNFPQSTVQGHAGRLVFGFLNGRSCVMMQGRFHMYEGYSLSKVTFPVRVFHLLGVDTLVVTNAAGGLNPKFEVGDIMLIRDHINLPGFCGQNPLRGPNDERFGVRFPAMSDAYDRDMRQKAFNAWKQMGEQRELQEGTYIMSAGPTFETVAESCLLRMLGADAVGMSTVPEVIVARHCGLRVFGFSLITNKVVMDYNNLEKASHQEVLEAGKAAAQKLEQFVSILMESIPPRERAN
Description: To measure and compare phosphorylation and kinetics, a stable substrate concentration was necessary and EHNA (5 μM) ([50]) and I-H (2.0 μM) ([49]) were added to all mitochondrial incubations. […] The mitochondria were incubated in vitro for up to 2 h at 37 °C in a shaker bath. At the end of the incubation, reactions were terminated by addition of 10% TCA to an equal volume of incubation mixture (175 μl) and spun in a microcentrifuge to remove precipitates. The supernatant was neutralized with AG 11 A8 resin and filtered through a 0.2-μM nylon syringe filter. The neutralized and filtered supernatants were analyzed by ultra high pressure liquid chromatography (UPLC). Radioactivity was determined from aliquots of each sample and processed through a Beckman Coulter multipurpose liquid scintillation counter (model 6500).

[5] = system: isolated rat heart; assay: Breakdown of the [3H]-parent compound in the perfusate of the isolated perfused rat heart; format: in vitro ADME; settings: 0.5 μM [3H]-dG alone
Description: To determine the degree of phosphorylation in a whole tissue, which would include the activity of the cytosolic dCK, we utilized an isolated rat heart Langendorff retrograde perfusion model.
See text for details. […] See text for details.
Perfused hearts were snap frozen into wafers by clamping the heart in liquid nitrogen, and the frozen tissue wafers were stored in −80 °C until processed as previously described for ([24]) UPLC analysis.

[6] = target: T2, deoxyguanosine kinase (dGK) (Rattus norvegicus, UniProt A0A0G2K478); assay: Tissue-specific phosphorylation of [3H]-dG, [3H]-dA and [3H]-ETV in isolated mitochondria; format: biochemical; settings: 2 h; for dG converted to phosphorylated products: 1 μM
T2 sequence (A0A0G2K478 with tags, fused parts or gaps): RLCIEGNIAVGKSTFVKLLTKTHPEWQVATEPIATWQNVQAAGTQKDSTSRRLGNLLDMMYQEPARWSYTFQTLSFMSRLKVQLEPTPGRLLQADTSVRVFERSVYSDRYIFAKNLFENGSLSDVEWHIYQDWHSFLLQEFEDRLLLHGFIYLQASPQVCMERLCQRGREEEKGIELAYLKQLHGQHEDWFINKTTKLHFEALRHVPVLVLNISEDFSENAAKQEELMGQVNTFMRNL
Description: As noted in the Experimental procedures, these were added together to determine total phosphorylation.
as §1
Extent of phosphorylation was measured and analyzed by UPLC (Agilent 1290) with a reverse-phase C18 column (Zorbax Eclipse Plus C18; 3.0 × 150 mm, 1.8 micron) coupled with an inline diode array to detect UV signal at 254 nm and to an inline liquid scintillation counter (β-Ram) to quantitate radioactivity.
(§2) The radioactivity in each of these peaks was quantitated and totaled to provide the total amount of radioactivity in the phosphorylated products for each labeled precursor. This total was divided by the specific radioactivity of the precursor and expressed as pmol/mg protein/hr. The Kms were calculated from Lineweaver–Burk plots 1/Vo=Km/Vmax[S]+1/Vmax

[7] = target: T2, deoxyguanosine kinase (dGK); assay: Kinetic analysis of [3H]-dA phosphorylation in the presence of dG or ETV in liver mitochondria; format: biochemical; settings: 0.12 μM inhibitor, 4 μM dA
Description: as §1

[8] = target: T2, deoxyguanosine kinase (dGK); assay: Inhibition of [3H]-dA phosphorylation by competing deoxynucleosides in liver mitochondria; format: biochemical; settings: IC50 values at 1 μM substrate
Description: as §1, §2

[9] = target: T2, deoxyguanosine kinase (dGK); assay: Kinetic analysis of [3H]-dG and [3H]-ETV phosphorylation and cross inhibition in heart mitochondria; format: biochemical; settings: absence of ETV, data of Figure 4
Description: as §1, §2

Q: With `C=C1C(COP(=O)(O)OP(=O)(O)OP(=O)(O)O)C(O)CC1n1cnc2c(=O)[nH]c(N)nc21` (stereo not drawn) [ETV-triphosphate] as the molecule, how does the “recognition by mitochondrial polymerase γ” value [1] read?
A: not recognized

Q: With `Nc1nc2c(ncn2[C@H]2C[C@H](O)[C@@H](CO)O2)c(=O)[nH]1` [dG, deoxyguanosine] as the molecule, how does the “conversion to [3H]-dGTP at the 30-min time point” value [2] read?
A: 22.4 ± 0.8 pmol/mg protein

Q: What about the “phosphorylated [3H]-dG in heart” value ([3]; 0.5 μM [3H]-dG + I-H 2 μM (legend: + I-H and EHNA)) of the same molecule?
A: 0.57 ± 0.08 pmol/mg wet heart

Q: And the “phosphorylated product in heart” value ([3]; 0.5 μM labeled compound alone)?
A: 0.18 ± 0.05 pmol/mg wet heart

Q: And the “stability in heart mitochondria” value ([4]; heart mitochondria, initial studies)?
A: stable

Q: And the “conversion of [3H]-dG to breakdown products” value ([4]; kidney mitochondria, 60 min, no inhibitor)?
A: 22%

Q: And the “parent compound in the perfusate by 60 min” value [5]?
A: nearly completely converted to catabolites

Q: What about the “parent compound in the perfusate within 3 min” value [5] of the same molecule?
A: 25 ± 8.8%

Q: And the “parent compound in the perfusate, initial level” value [5]?
A: 86.8 ± 0.7%

Q: And the “dG phosphorylated more readily than dA” value ([6]; 1 μM each, brain, heart, kidney, liver mitochondria)?
A: 10 fold

Q: What about the “dG converted to phosphorylated products” value ([6]; heart mitochondria) of the same molecule?
A: 30 pmol/mg mitochondrial protein

Q: What about the “dG converted to phosphorylated products” value ([6]; liver mitochondria) of the same molecule?
A: 60 pmol/mg mitochondrial protein

Q: What about the “inhibition of dA phosphorylation” value [7] of the same molecule?
A: nearly completely inhibited

Q: What about the “inhibition of dA phosphorylation more potent than ETV inhibition of dG phosphorylation” value [8] of the same molecule?
A: 500 fold

Q: What about the “rate of [3H]-dG phosphorylation to [3H]-dGTP, control” value [9] of the same molecule?
A: 45.9 ± 1.8 pmol/mg protein/hr

From publication PMC9097457 (The Journal of Biological Chemistry, 2022)
